Test results from US12564622B2, “Preventing cytokine release syndrome” (priority 2017, dated 2026).
“Also recorded” adds a separate entry of the source.

Test system: anti-CD3 antibody-induced CRS in BALB/c mice
Assay: Anti-CD3 treatment induced CRS
Type: in vivo, mouse (BALB/c)
Description: (§1) Metyrosine was freshly dissolved in PBS and injected IP at 60 mg/kg/day for three days prior to injection of anti-CD3 antibodies. […] Thirty minutes before the IP injection of the anti-mouse CD3 antibody (BioXcell, 145-2C11), metyrosine was IP injected at 60 mg/kg into the contralateral side. A single additional dose of 30 mg/kg metyrosine was injected IP on the following day. Control groups were injected with PBS at the same times.
as §1, with “times. For experiments with conditional TH knockout mice, 4-6 week-old LysMcre: TH fl/fl (TH^ΔLysM) mice with C57BL/6 background were used and LysMcre: TH+/+ mice of the same age were used as control. In these experiments, 200 μg/mouse anti-mouse CD3 antibody was injected IP.” for “times.”

[1] = 24 hours after anti-CD3, metyrosine pre-treatment

C[C@](N)(Cc1ccc(O)cc1)C(=O)O [metyrosine, α-methyl-tyrosine]
IL-2 and IFN-γ [1]: not significantly affected | circulating catecholamines [1]: reduced to near normal levels; also recorded: significantly reduced | pro-inflammatory cytokines (IL-6, TNF-α, KC, MIP-2, MIP-1α) [1]: major reductions | mice surviving (of mice pre-treated) (anti-CD3 125 μg/mouse, metyrosine pre-treatment): eleven of the twelve; also recorded: twelve of the fifteen
